In ChEMBL document CHEMBL1131920, “Periodinates: a new class of protein tyrosine phosphatase inhibitors” (Bioorg Med Chem Lett, 1999):

Key:
Rattus norvegicus [1] = species on record: Rattus norvegicus; assay: Inhibition of protein tyrosine phosphatase (PTP) activity in rat liver endosome insulin receptor (IR) dephosphorylation assay at 0.1 mM
Rattus norvegicus [2] = species on record: Rattus norvegicus; assay: Inhibition of protein tyrosine phosphatase (PTP) activity in rat liver endosome insulin receptor (IR) dephosphorylation assay at 1 mM
[3] = biological target: T1, Tyrosine-protein phosphatase non-receptor type 1 (Homo sapiens, UniProt P18031); assay: Inhibition of protein tyrosine phosphatase 1B (PTP1B) activity in 3,6-fluorescein diphosphate (FDP) assay
T1 sequence (P18031 whole entry): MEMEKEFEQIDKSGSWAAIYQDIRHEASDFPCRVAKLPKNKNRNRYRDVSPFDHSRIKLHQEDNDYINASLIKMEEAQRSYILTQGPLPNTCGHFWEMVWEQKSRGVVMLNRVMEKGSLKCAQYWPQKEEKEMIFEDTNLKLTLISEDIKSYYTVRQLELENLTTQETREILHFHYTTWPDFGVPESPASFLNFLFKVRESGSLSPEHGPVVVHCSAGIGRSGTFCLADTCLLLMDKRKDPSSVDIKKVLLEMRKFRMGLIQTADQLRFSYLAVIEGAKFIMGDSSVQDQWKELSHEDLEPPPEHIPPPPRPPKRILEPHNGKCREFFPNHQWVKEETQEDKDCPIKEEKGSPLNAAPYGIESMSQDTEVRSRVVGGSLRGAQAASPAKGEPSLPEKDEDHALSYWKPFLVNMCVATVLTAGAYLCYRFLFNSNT

[4] = biological target: T1, Tyrosine-protein phosphatase non-receptor type 1; assay: Inhibition of protein tyrosine phosphatase 1B (PTP1B) activity in 3,6-fluorescein diphosphate (FDP) assay; NI= no inhibition

| Compound | inhibition (Rattus norvegicus [1]) [%] | inhibition (Rattus norvegicus [2]) [%] | IC50 [3] [mM] | IC50 [4] |
| --- | --- | --- | --- | --- |
| OO | 0 | 65 | – | – |
| Cc1ccc(I(=O)=O)cc1 | 6 | 47 | 1.51 | – |
| O=I(=O)c1c[nH]cn1 | 22 | 43 | 1.05 | – |
| O=[N+]([O-])c1cccc(I(=O)=O)c1 | 27 | 86 | 1.14 | – |
| O=C1OI(=O)(O)c2ccccc21 (stereo not given) | 36 | 98 | 1.16 | – |
| O=[N+]([O-])c1ccc(I(=O)=O)cc1 | 30 | 90 | 0.13 | – |
| O=I(=O)c1ccccc1 | 0 | 88 | 2.65 | – |
| O=P1(O)Oc2ccccc2I(=O)(O)O1 (stereo not given) | 17 | – | 0.35 | – |
| O=I(=O)c1ccc(I(=O)=O)cc1 | – | 30 | 1.41 | – |
| O=C1OI(O)c2ccccc21 | – | 10 | – | Not Active |
| CC(=O)OI1(OC(C)=O)(OC(C)=O)OC(=O)c2ccccc21 | 50 | 69 | 0.13 | – |
| O=C(O)c1cccc(I(=O)=O)c1 | 32 | 67 | 0.89 | – |
| CC(C)(C)OOI1OC(=O)c2ccccc21 | 48 | 78 | 0.23 | – |
